The values below come from publication PMC11571109, “Covalent Inhibitors of S100A4 Block the Formation of a Pro-Metastasis Non-Muscle Myosin 2A Complex” (Journal of Medicinal Chemistry, 2024).

In general, IC50 refers to the concentration at which inhibition is half-maximal.

The target in one assay is S100A4 (Homo sapiens, UniProt P26447). The experiment in a line: Protein labeling detection by mass spectrometry, S100A4. The following applies: 10 μM S100A4, 100 μM inhibitor, 1 h.
Another assay deals with T1, S100A11-AnII (Homo sapiens, UniProt P31949).
T1 construct: made in house; host or cells: E. coli Rosetta (DE3); peptide from LifeTein
T1 sequence (P31949 1-105): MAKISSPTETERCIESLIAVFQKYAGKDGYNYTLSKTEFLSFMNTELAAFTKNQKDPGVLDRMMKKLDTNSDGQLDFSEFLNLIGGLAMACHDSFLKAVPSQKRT
The experiment in a line: HTRF (TR-FRET) peptide displacement S100A11-AnII. Format: binding. Particulars: supplementary CSV. On the procedure:
Table S4: Compound IDs and SMILES … S30 […]
(§1) Peptide displacement assay development
(§2) addition of an inhibitor.
(§3) Assay was done in 384-well
(§4) After 2 hours of incubation at
(§5) concentration range to avoid the saturation of the signal.
For orientation: Time-resolved FRET reads energy transfer from a long-lived donor to a nearby acceptor.

The target in a further assay is S100A4-NMII (Homo sapiens, UniProt P26447). The experiment in a line: HTRF (TR-FRET) peptide displacement S100A4-NMII (MPN peptide). The format is binding. On the set-up: made in house; host or cells: E. coli Rosetta (DE3); peptide from LifeTein. Particulars: supplementary CSV; read-out: S100A4 IC50 HTRF assay. On the procedure: as §1, §2, §3, §4, §5
Chain of S100A4-NMII (P26447 whole entry): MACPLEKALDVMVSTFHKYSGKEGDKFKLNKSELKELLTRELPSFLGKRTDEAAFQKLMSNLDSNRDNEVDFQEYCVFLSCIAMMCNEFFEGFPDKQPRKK

Chain of S100A4 (P26447 whole entry): as above

In the case of `CC(C)c1c(-c2ccc(OCCNC(=O)/C=C/C(=O)c3ccccc3)cc2)[nH]c2c(C#N)cnn2c1=O` [2a], the “S100A4 covalent modification pattern (in words)” value on S100A4 is given as “multiple adduct additions”. Further, the figures for the IC50 on S100A11-AnII and at S100A4-NMII were 3.67 µM and 0.43 µM, respectively.

As to `CC(C)c1c(-c2cnn(C3CCN(C(=O)/C=C/C(=O)c4ccccc4)CC3)c2)[nH]c2c(C#N)cnn2c1=O` [2b], the “S100A4 covalent modification pattern (in words)” value on S100A4 is on record as “multiple adduct additions”. Moreover, the IC50 came out at 1.35 µM at S100A11-AnII and 0.48 µM on S100A4-NMII.

Regarding `CC(C)c1c(-c2cnn(CCNC(=O)/C=C/C(=O)c3ccccc3)c2)[nH]c2c(C#N)cnn2c1=O` [2c], the IC50 at S100A11-AnII was 5.6 µM; at S100A4-NMII, 1.79 µM.

Regarding `O=C(CCl)Nc1ccc2c(c1)CN(CCc1cnn(-c3nccc4c(=O)[nH]cnc34)c1)CC2` [2d], the results for the IC50 on S100A11-AnII and at S100A4-NMII were > 30 µM and 9.24 µM, respectively.

On to `O=C(CCl)Nc1cccc(CN(CCc2cnn(-c3nccc4c(=O)[nH]cnc34)c2)C2CCCC2)c1` [3a], for which the figures for the IC50 on S100A11-AnII and on S100A4-NMII were > 30 µM and 2.4 µM, respectively.

Take `C=CC(=O)Nc1cccc(CN(CCc2cnn(-c3nccc4c(=O)[nH]cnc34)c2)C2CCCC2)c1` [3b]: the concentration for half-maximal inhibition (IC50) on S100A11-AnII was > 30 µM; at S100A4-NMII, 9.32 µM.

Take `C#CC(=O)N1CCN(CCc2cnn(-c3nccc4c(=O)[nH]cnc34)c2)CC1` [4a]: the figures for the IC50 at S100A11-AnII and on S100A4-NMII were 8.15 µM and 1.73 µM, respectively.
